{"source": "paper PMC11655196", "about": "“Angiotensin-I-converting enzyme inhibitory peptides from eel (Anguilla japonica) bone collagen: preparation, identification, molecular docking, and protective function on HUVECs” (Frontiers in Nutrition, 2024)", "key": {"[1]": {"biological_target": "T1, ACE (Oryctolagus cuniculus, UniProt P12822)", "T1 construct": "ACE (≥2.0 U/mg, rabbit lung) was purchased; purchased Shanghai Yuanye Biotechnology Co., Ltd. (Shanghai, China); host or cells: rabbit lung (tissue-derived)", "T1 sequence (P12822 34-1310)": "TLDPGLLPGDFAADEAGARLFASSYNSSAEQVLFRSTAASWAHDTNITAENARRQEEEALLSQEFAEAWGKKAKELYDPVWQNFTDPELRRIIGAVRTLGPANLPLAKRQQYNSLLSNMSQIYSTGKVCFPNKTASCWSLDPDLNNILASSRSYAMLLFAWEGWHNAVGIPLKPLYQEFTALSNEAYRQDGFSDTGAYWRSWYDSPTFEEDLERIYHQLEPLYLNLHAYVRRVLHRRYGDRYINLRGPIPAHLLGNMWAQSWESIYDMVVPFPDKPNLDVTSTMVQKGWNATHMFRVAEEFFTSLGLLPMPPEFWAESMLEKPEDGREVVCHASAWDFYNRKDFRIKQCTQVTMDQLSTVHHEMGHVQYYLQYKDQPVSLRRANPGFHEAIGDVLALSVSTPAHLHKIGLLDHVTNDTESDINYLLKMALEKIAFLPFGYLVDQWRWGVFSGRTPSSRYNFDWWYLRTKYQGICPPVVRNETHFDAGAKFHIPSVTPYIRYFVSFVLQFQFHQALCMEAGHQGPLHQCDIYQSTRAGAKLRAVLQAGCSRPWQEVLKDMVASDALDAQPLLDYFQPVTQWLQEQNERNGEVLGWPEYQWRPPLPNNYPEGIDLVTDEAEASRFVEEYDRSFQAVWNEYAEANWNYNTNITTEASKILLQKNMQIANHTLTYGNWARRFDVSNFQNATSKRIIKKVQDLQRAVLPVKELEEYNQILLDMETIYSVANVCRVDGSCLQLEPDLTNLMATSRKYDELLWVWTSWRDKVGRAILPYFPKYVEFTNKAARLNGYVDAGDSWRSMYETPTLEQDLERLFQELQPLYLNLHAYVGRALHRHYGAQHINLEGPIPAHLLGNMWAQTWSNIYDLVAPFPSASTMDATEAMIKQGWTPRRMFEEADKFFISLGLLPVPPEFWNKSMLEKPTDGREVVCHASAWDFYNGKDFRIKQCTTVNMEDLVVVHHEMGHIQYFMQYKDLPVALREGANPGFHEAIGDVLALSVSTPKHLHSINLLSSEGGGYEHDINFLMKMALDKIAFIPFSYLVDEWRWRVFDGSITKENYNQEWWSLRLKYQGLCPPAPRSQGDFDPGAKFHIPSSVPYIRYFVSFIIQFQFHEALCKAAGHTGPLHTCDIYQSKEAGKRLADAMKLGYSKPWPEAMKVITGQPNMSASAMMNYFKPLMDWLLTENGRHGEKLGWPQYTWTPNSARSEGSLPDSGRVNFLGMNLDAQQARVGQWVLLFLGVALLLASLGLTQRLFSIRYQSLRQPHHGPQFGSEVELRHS", "experiment": "ACE inhibition kinetics (Lineweaver-Burk plots)", "type": "biochemical, rabbit", "settings": "GPPGPPGL 0–100 μM, HHL 2 to 5 mM", "description": "The ACE inhibition kinetics of the chosen peptides were determined using the method of previous research ([20]), using Lineweaver–Burk plots. The measurement of ACE activity was conducted at different concentrations of peptides, and HHL concentrations ranging from 2 to 5 mM were included. The Michaelis–Menten kinetic equation was used to compute the Michaelis–Menten constant (Km) and maximum reaction rate (Vmax) using data obtained from the Lineweaver–Burk plots."}, "[2]": {"test_system": "ACE", "settings": "read-out: IC50 (blood pressure lowering peptide, ACE), cited from earlier work", "source_text": "There were various peptides derived from food that are recognized for their ability to inhibit ACE activity, potentially leading to a reduction in blood pressure levels in vivo ([6])."}, "[3]": {"settings": "from conger eel (Conger myriaster); read-out: IC50 (anti-oxidative effects); cited from earlier work", "source_text": "Anguilla japonica, also known as eel, is a type of aquatic food that contains high levels of protein, fat, vitamin A, vitamin E, and other nutrients ([11]). It is particularly abundant in collagen. Eel processing is mainly based on grilled eel, most of which is exported abroad. During the eel processing of eels, various by-products such as fish heads and bones are generated. These by-products are mainly used in the production of animal feed or discarded. Eel bones have approximately 13.25% of protein, 19.18% of lipid, 5.63% of ash, and 56.96% of moisture content ([12]). Some bioactive peptides ..."}}, "note": "Like-named read-outs stand apart in the source and are kept apart here. Ends that are not written are not given here."}
{"substance": "GPPGPPGL [GPPGPPGL]", "values": [{"measurement": "Km with increasing peptide level", "setting": "[1]", "value": "increase"}]}
{"substance": "Ile-Pro-Ile-Lys [literature peptide from Euphausia superba]", "values": [{"measurement": "IC50", "setting": "[2]; from Euphausia superba", "value": 57.4, "unit": "µM"}]}
{"substance": "Trp-Pro-Met-Gly-Phe [literature peptide from Cyclina sinensis]", "values": [{"measurement": "IC50", "setting": "[2]; from Cyclina sinensis", "value": 789, "unit": "µM"}]}
{"substance": "LGLNGDDVN [literature anti-oxidative peptide from conger eel (Conger myriaster)]", "values": [{"measurement": "IC50", "setting": "[3]", "value": 78.5, "unit": "µM"}]}
{"substance": "Gln-Val-Glu-Tyr [literature peptide from Gracilariopsis lemaneiformis]", "values": [{"measurement": "IC50", "setting": "[2]; from Gracilariopsis lemaneiformis", "value": 474, "unit": "µM"}]}
